From ChEMBL document CHEMBL5356946, “Recent progress of small-molecule-based theranostic agents in Alzheimer's disease” (RSC Med Chem, 2023)

Biological target: Amyloid-beta precursor protein (Homo sapiens, UniProt P05067)
Test: Binding affinity to Amyloid-beta (unknown origin) (1 to 42 residues) assessed as dissociation constant incubated for 30 mins by fluorescence based analysis

Sequence of Amyloid-beta precursor protein (P05067 whole entry, the tested form may be a part): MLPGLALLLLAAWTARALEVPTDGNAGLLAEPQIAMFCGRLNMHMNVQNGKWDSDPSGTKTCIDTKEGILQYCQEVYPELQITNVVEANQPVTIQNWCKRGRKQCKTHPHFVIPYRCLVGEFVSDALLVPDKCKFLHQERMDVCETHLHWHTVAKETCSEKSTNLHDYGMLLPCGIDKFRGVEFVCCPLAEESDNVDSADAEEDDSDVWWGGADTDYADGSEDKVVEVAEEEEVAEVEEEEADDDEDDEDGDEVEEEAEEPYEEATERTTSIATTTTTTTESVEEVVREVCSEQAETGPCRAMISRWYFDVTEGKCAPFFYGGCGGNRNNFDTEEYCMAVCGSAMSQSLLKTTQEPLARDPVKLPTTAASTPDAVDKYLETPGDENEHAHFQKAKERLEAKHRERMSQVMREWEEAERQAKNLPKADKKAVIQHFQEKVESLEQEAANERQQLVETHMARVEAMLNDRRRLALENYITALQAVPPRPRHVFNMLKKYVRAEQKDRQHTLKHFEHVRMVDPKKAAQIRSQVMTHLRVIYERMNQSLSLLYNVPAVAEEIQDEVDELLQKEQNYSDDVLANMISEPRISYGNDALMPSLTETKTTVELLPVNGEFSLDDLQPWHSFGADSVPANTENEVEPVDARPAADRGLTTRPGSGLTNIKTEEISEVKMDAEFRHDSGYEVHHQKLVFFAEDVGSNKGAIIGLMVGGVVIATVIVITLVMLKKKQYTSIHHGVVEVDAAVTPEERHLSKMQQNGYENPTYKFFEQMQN

CCOC(=O)CN1C(=O)/C(=C/c2ccc3c(c2)Sc2ccccc2N3C)SC1=S
Kd: 7.5 nM
